The values below come from paper PMC5007854, “β-Nitrostyrenes as Potential Anti-leishmanial Agents” (Frontiers in Microbiology, 2016).

Data set [1] concerns Pseudomonas aeruginosa ATCC 27853. Kind of data set: Broth microdilution antibacterial susceptibility (MIC/MBC). The class given is cell-based. The settings on record: for MIC / MBC: Pseudomonas aeruginosa; for MIC: ATCC27853, 24 h. The gist of the method: (§1)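 CLSI broth microdilution: Ca/Mg-supplemented Mueller-Hinton for bacteria (~5 × 10^5 CFU/mL, 24 h), MOPS-buffered RPMI 1640 pH 7.0 for fungi (Candida ~2.5 × 10^4, Aspergillus 0.4-5 × 10^4 CFU/mL, 48 h), 35°C, 1% DMSO, 64 to 0.12 μg/mL. MIC read visually; MBC/MFC by plating clear wells.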
(In general: Dilution methods test growth across graded concentrations, often in twofold steps.)

Data set [2] relates to Escherichia coli ATCC 25922. Described as above. The class given is cell-based. Particulars: for MIC / MBC: Escherichia coli; for MIC: ATCC25922, 24 h. The gist of the method: as §1
The test system of data set [3] is Staphylococcus aureus ATCC 29213. The data set is described as above. The class given is cell-based. The settings on record: for MIC / MBC: Staphylococcus aureus; for MIC: ATCC29213, 24 h. The essentials:
as §1

Data set [4] deals with Staphylococcus epidermidis ATCC 14990. The data set is described as above. The class given is cell-based. Particulars: for MIC / MBC: Staphylococcus epidermidis; for MIC: ATCC14990, 24 h. The essentials:
as §1

In data set [5] the test system is Aspergillus niger ATCC 16404. The experiment in a line: Broth microdilution antifungal susceptibility (MIC/MFC). The class given is cell-based. Particulars: for MIC / MFC: Aspergillus niger; for MIC: ATCC16404, 48 h. The gist of the method:
as §1

Data set [6] concerns Candida albicans ATCC 90028. The description is as above. The class given is cell-based. The settings on record: for MIC / MFC: Candida albicans; for MIC: ATCC90028, 48 h. The essentials:
as §1

Data set [7] relates to Aspergillus fumigatus ATCC 16424. Described as above. The class given is cell-based. Particulars: for MIC / MFC: Aspergillus fumigatus; for MIC: ATCC16424, 48 h. The gist of the method:
as §1

Data set [8] has as its system Candida glabrata ATCC 90030. The data set is described as above. Particulars: Nakaseomyces glabratus. The class given is cell-based. The gist of the method: as §1
Data set [9] has as its system L. donovani promastigotes. The experiment in a line: Anti-leishmanial screening at 100 μM, parasite viability by microscopy. The class given is cell-based, Leishmania donovani. The settings on record: 100 μM, 72 h, phase contrast microscope. Here is the method: (§2) L. donovani parasites (MHOM/IN/83/AG83) were maintained in vivo in BALB/c mice. Promastigotes were routinely cultured at 22°C in medium M199 supplemented with 10% heat inactivated fetal bovine serum (FBS, HiMedia Laboratories, Mumbai, India), penicillin 100 (IU/ml), streptomycin (100 μg/ml). Log phase promastigotes were sub-cultured every 72–96 h, the inoculum being 2 × 10^6 cells/ml (Afrin et al., [2002]).
Nitrostyrine series were screened for their antileishmanial activity against L. donovani promastigotes in vitro. Promastigotes of L. donovani (2 × 10^6 cells/mL) in M199 medium were incubated at 22°C for 72 h with each compound at a concentration of 100 μM. Amphotericin B (AmB) served as reference drug, 0.2% DMSO was used as solvent control. Parasites with media alone were taken as control. Parasite viability was determined microscopically after 72 h (Islamuddin et al., [2014b]).

The subject of data set [10] is L. donovani promastigotes. The experiment in a line: Dose-dependent anti-promastigote activity, IC50 and IC90. The class given is cell-based, Leishmania donovani. Here is the method:
as §2
AmB was used as a standard antileishmanial drug control. The cell viability was evaluated by microscopically and the mean percentage viability was calculated as follows: Mean cell number of treated parasites / Mean cell number of untreated parasites × 100. The 50 and 90% inhibitory concentration (IC50 and IC90) i.e., the concentration of drugs that decreased the cell growth by 50 and 90% respectively was determined by graphical extrapolation after plotting the graph of % viability vs. concentration of drug (Islamuddin et al., [2014b]).
In vitro antileishmanial activity was expressed as IC50 by linear regression analysis. Values are mean ± SE of samples in triplicate from at least three independent experiments. Statistical analysis was performed using ANOVA followed by Dunnett's test. ^*P < 0.05, ^**P < 0.01 and ^***P < 0.001 compared with the untreated control group were considered significant.

The mark [11] stands for this setting: broth microdilution, 35°C, 24 h.
[12] abbreviates: broth microdilution, 35°C, 48 h.

In general, MIC refers to the lowest concentration that inhibits growth of the organism. In general, MBC refers to the lowest tested concentration that kills the bacteria rather than only halting them. As a reminder, the MFC is the smallest concentration meeting the test's criterion for killing the fungus. As a reminder, the melting point is the temperature of the solid-liquid transition. In general, IC50 refers to the concentration that inhibits the measured activity by half.

Values after ≈ are worked out from the molar mass of the structure shown. Like-named read-outs stand apart in the source and are kept apart here.

In turn, `C/C(=C\c1ccc([N+](=O)[O-])cc1)[N+](=O)[O-]` [Compound 8, 1-nitro-4-((E)-2-nitroprop-1-enyl) benzene] yielded a melting point of 114 to 116 °C. In addition, the MIC in data set [1] (read-out: MIC, Pa ATCC 27853, broth microdilution, 35°C, 24 h) turned out to be 64 µg/mL (≈ 307 µM). For the same molecule, in [1] (ATCC27853, read-out: MBC, Pa ATCC 27853), the MBC is more than 64 µg/mL. The MIC in [2] (read-out: MIC, Ec ATCC 25922, broth microdilution, 35°C, 24 h) is 64 µg/mL (≈ 307 µM). The MBC in data set [2] (ATCC25922, read-out: MBC, Ec ATCC 25922) was more than 64 µg/mL. Moreover, the MIC in data set [3] (read-out: MIC, Sa ATCC 29213, broth microdilution, 35°C, 24 h) is 16 µg/mL (≈ 76.9 µM). The MBC in data set [3] (ATCC29213, read-out: MBC, Sa ATCC 29213) is 32 µg/mL (≈ 154 µM). Besides, the MIC in data set [4] (read-out: MIC, Se ATCC 14990, broth microdilution, 35°C, 24 h) was found to be 16 µg/mL (≈ 76.9 µM). Also, in data set [4] (ATCC14990, read-out: MBC, Se ATCC 14990), the MBC was 16 µg/mL (≈ 76.9 µM). Besides, the MIC in data set [5] (read-out: MIC, An ATCC 16404, broth microdilution, 35°C, 48 h) came to 2 µg/mL (≈ 9.61 µM). Besides, the MFC in data set [5] (ATCC16404, read-out: MFC, An ATCC 16404) came out at 2 µg/mL (≈ 9.61 µM). For the same molecule, the MIC in data set [6] (read-out: MIC, Ca ATCC 90028, broth microdilution, 35°C, 48 h) turned out to be 4 µg/mL (≈ 19.2 µM). For the same molecule, in data set [6] (ATCC90028, read-out: MFC, Ca ATCC 90028), the MFC turned out to be 4 µg/mL (≈ 19.2 µM). Besides, the MIC in data set [7] (read-out: MIC, Af ATCC 16424, broth microdilution, 35°C, 48 h) was 4 µg/mL (≈ 19.2 µM). Moreover, in data set [7] (ATCC16424, read-out: MFC, Af ATCC 16424), the MFC worked out at 4 µg/mL (≈ 19.2 µM). Also, the MIC in data set [8] (ATCC90030, 48 h, read-out: MIC, Cg ATCC 90030, broth microdilution, 35°C, 48 h) was 1 µg/mL (≈ 4.8 µM). The MFC in data set [8] (ATCC90030, read-out: MFC, Cg ATCC 90030) was found to be 1 µg/mL (≈ 4.8 µM). Also, in data set [9], the “Parasite viability after treatment” value is “All the parasites were found to be dead”.
Regarding `C/C(=C\c1ccc(O)cc1)[N+](=O)[O-]` [Compound 17, 4-((E)-2-nitroprop-1-enyl) phenol], the melting point lay within 122 to 124 °C. Besides, the MIC in data set [1] (broth microdilution, 35°C, 24 h, read-out: MIC, Pa ATCC 27853) lay within 16 to 32 µg/mL (≈ 89.3 to 179 µM). In [1] (ATCC27853, ≥99.9% reduction of original inoculum, read-out: MBC, Pa ATCC 27853), the MBC is 32 µg/mL (≈ 179 µM). For the same molecule, in data set [1] (setting [11]), the “MIC, Pa ATCC 27853” value was 16 µg/mL (≈ 89.3 µM). Moreover, the MIC in [2] (broth microdilution, 35°C, 24 h, read-out: MIC, Ec ATCC 25922) lay within 16 to 32 µg/mL (≈ 89.3 to 179 µM). Also, the MBC in data set [2] (ATCC25922, ≥99.9% reduction of original inoculum, read-out: MBC, Ec ATCC 25922) was 16 µg/mL (≈ 89.3 µM). In data set [2] (setting [11]), the “MIC, Ec ATCC 25922” value is 16 µg/mL (≈ 89.3 µM). Moreover, the MIC in data set [3] (broth microdilution, 35°C, 24 h, read-out: MIC, Sa ATCC 29213) lay within 2 to 32 µg/mL (≈ 11.2 to 179 µM). The MBC in data set [3] (ATCC29213, ≥99.9% reduction of original inoculum, read-out: MBC, Sa ATCC 29213) was 4 µg/mL (≈ 22.3 µM). Moreover, in data set [3] (setting [11]), the “MIC, Sa ATCC 29213” value came out at 4 µg/mL (≈ 22.3 µM). Besides, the MIC in data set [4] (broth microdilution, 35°C, 24 h, read-out: MIC, Se ATCC 14990) was in the range of 2 to 16 µg/mL (≈ 11.2 to 89.3 µM). Also, in data set [4] (ATCC14990, ≥99.9% reduction of original inoculum, read-out: MBC, Se ATCC 14990), the MBC came to 2 µg/mL (≈ 11.2 µM). Besides, the “MIC, Se ATCC 14990” value in data set [4] (setting [11]) worked out at 2 µg/mL (≈ 11.2 µM). The “Anti-leishmanial activity, in words (compounds with IC50 determined)” value in data set [10] (L. donovani promastigotes) was “moderately active”. In [10] (Leishmania donovani, 72 h, 22°C, values given in μM, read-out: IC50 against promastigotes), the IC50 is 39.4 ± 1.36 µM. Also, the MIC in data set [5] (broth microdilution, 35°C, 48 h, read-out: MIC, An ATCC 16404) was 2 to 4 µg/mL (≈ 11.2 to 22.3 µM). Also, the MFC in data set [5] (ATCC16404, ≥99.9% reduction of original inoculum, read-out: MFC, An ATCC 16404) came to 4 µg/mL (≈ 22.3 µM). In addition, the “MIC, An ATCC 16404” value in [5] (setting [12]) was 4 µg/mL (≈ 22.3 µM). Further, in [6] (broth microdilution, 35°C, 48 h, read-out: MIC, Ca ATCC 90028), the MIC was in the range of 4 to 32 µg/mL (≈ 22.3 to 179 µM). Further, the MFC in data set [6] (ATCC90028, ≥99.9% reduction of original inoculum, read-out: MFC, Ca ATCC 90028) was 8 µg/mL (≈ 44.6 µM). For the same molecule, the “MIC, Ca ATCC 90028” value in [6] (setting [12]) was 8 µg/mL (≈ 44.6 µM). Also, in [7] (broth microdilution, 35°C, 48 h, read-out: MIC, Af ATCC 16424), the MIC is 4 to 8 µg/mL (≈ 22.3 to 44.6 µM). The MFC in data set [7] (ATCC16424, ≥99.9% reduction of original inoculum, read-out: MFC, Af ATCC 16424) was found to be 8 µg/mL (≈ 44.6 µM). The “MIC, Af ATCC 16424” value in [7] (setting [12]) was determined as 8 µg/mL (≈ 44.6 µM). Also, the MFC in data set [8] (ATCC90030, ≥99.9% reduction of original inoculum, read-out: MFC, Cg ATCC 90030) amounted to 8 µg/mL (≈ 44.6 µM). Also, the “Parasite viability after treatment” value in [9] is given as “All the parasites were found to be dead”.
